Patent publication US20240319156A1, “DEVICE FOR TESTING VAPORIZABLE FLUIDS IN A HUMAN AIRWAY MODEL” (Rowan University, priority 2022, published 2024)

Tested on: human airway model tissue
Details: e-cigarette vapor exposure day 20 to day 34; vs untreated 'no battery' tissue
Source text: The investigation compared how human airway model tissue was affected by e-cigarette vapors generated from two different vape-liquids, propylene glycol/vegetable glycerin ‘PG:VG’, and vitamin E acetate ‘VEA’.
Referring to FIGS. 30A-30B, illustration of experimental design used in research investigation, human airway model tissues were formed from day 0 to day 20, tissues were exposed to experimental vapors from day 20 to day 34.

SMILES: CC(=O)Oc1c(C)c(C)c2c(c1C)CCC(C)(CCC[C@H](C)CCC[C@H](C)CCCC(C)C)O2 (stereo partly shown) [VEA, vitamin E acetate]
- tissue morphology in stained cross-sections: present typical structure and are undamaged
